Test results reported in article PMC8986608 (Journal of the American Chemical Society, 2022).

Target: ScoE (Streptomyces coeruleorubidus, UniProt A0A3B6UEU3)
Details: alpha-KG, Fe(II)

C[C@H](CC(=O)O)/N=C/C(=O)O [compound 2, imine CABA] showed a Km of 369 ± 40 µM.
